Results reported in US6262104A, “Diarylalkenylamine derivatives” (SmithKline Beecham p.l.c., priority 1995, dated 2001).
pIC50: −log10 of the molar value. Where a name gives a salt, the structure may show the parent alone.

Biological target: T1, delta (Mus musculus, UniProt P32300)
T1 construct: Vasa deferentia were obtained from CD-1 mice; from tissue; host or cells: vas deferens of CD-1 mice
Assay: Mouse vas deferens (MVD) bioassay, delta agonist/antagonist activity
Conditions: CD-1 mouse vasa deferentia, electrically stimulated, Mg2+-free Krebs buffer, 37° C.
Experimental: The delta agonist/antagonist activity of the compounds of the present invention is determined in the mouse vas deferens (MVD) bioassay as described below.
Vasa deferentia were obtained from CD-1 mice and were suspended in a Mg^2+ - free Krebsa buffer at 37° C. The tissues were electrically stimulated with pulse trains having the following parameters: train duration 50 ms, stimulus duration 2 ms, frequency of stimuli 50 Hz, maximal voltage 60-70 V, train frequency 0.1 Hz. Concentration response curves for each compounds were constructed cumulatively. Linear regression analysis and IC50 concentrations were evaluated according to Talarida and Murray (Manual of Pharmacological Calculations, Springer Verlag NY, 1981).

T1 sequence (P32300 whole entry): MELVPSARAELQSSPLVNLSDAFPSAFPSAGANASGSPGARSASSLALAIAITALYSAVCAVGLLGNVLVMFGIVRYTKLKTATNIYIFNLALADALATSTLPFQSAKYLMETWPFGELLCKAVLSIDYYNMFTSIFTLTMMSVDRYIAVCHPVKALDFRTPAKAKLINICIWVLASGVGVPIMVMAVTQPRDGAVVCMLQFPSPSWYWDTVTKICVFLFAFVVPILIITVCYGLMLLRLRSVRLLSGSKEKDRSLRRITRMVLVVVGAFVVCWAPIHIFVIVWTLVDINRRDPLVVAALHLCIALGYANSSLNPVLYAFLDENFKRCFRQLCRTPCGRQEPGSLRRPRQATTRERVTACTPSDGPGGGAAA

Structure (SMILES): CCN(CC)C(=O)c1ccc(/C(=C\CN2CCCC2)c2cccc(O)c2)cc1 [Example 2, (E)-N,N-Diethyl-4-[[1-(3-hydroxyphenyl)-3-pyrrolidin-1-yl]-1-propenyl]benzamide citrate]
- pIC50: 7.52
